Species: Rattus norvegicus
Assay: DrugMatrix - Regimen: Daily Repeat
Type: toxicity, organism-based, Sprague-Dawley
Parameters: regimen Daily Repeat, gender Male, age 6-8 weeks
Details: in vivo, sc, route subcutaneous, […]; for ABSOLUTE BASOPHIL / ABSOLUTE EOSINOPHIL / ABSOLUTE LYMPHOCYTE / ABSOLUTE MONOCYTE / ABSOLUTE SEGMENTED NEUTROPHIL / BASOPHIL / EOSINOPHIL / ERYTHROCYTE COUNT / HEMATOCRIT / HEMOGLOBIN / LEUKOCYTE COUNT / LYMPHOCYTE / MEAN CORPUSCULAR HEMOGLOBIN / MEAN CORPUSCULAR HEMOGLOBIN CONCENTRATION / MEAN CORPUSCULAR VOLUME / MONOCYTE / NEUTROPHIL / NUCLEATED RED BLOOD CELLS / PLATELET COUNT: tissue Blood; for ALANINE AMINOTRANSFERASE / ALBUMIN / ALKALINE PHOSPHATASE / ASPARTATE AMINOTRANSFERASE / BLOOD UREA NITROGEN / CARBON DIOXIDE / CHLORIDE / CHOLESTEROL / CREATINE PHOSPHOKINASE / CREATININE / GLUCOSE / LACTATE DEHYDROGENASE / LIPASE / PHOSPHORUS / POTASSIUM / SODIUM / TOTAL BILIRUBIN / TOTAL PROTEIN / URIC ACID: tissue Plasma
[1] = 56 mg/kg, 120 h, dose level M1, time 5 day
[2] = 72 h, dose 5.6 mg/Kg, dose level Low, time 3 day
[3] = 120 h, dose 5.6 mg/Kg, dose level Low, time 5 day

`O=C(Nc1ccc(Br)cc1)c1cc(Br)cc(Br)c1O` [TRIBROMSALAN] was tested, and the “ABSOLUTE BASOPHIL” value [1] was 0 CELLS/uL, the “ABSOLUTE EOSINOPHIL” value [1] was 183 CELLS/uL and the “ABSOLUTE LYMPHOCYTE” value [1] was 10057 CELLS/uL. The “ABSOLUTE MONOCYTE” value [1] was 145 CELLS/uL, the “ABSOLUTE SEGMENTED NEUTROPHIL” value [1] was 1315 CELLS/uL and the BASOPHIL [1] was 0%. The EOSINOPHIL [1] was 1%, the “ERYTHROCYTE COUNT” value [1] was 5.63 x10E6/uL and the HEMATOCRIT [1] was 34.6%. The HEMOGLOBIN [1] was 12.83 G/DL, the “LEUKOCYTE COUNT” value [1] was 11.7 x10E3/uL and the LYMPHOCYTE [1] was 86.33%. The “MEAN CORPUSCULAR HEMOGLOBIN” value [1] was 22.8 pg, the “MEAN CORPUSCULAR HEMOGLOBIN CONCENTRATION” value [1] was 37.1 G/DL and the “MEAN CORPUSCULAR VOLUME” value [1] was 61.47 fL. For the same compound, the MONOCYTE [1] was 1.33%, the NEUTROPHIL [1] was 11.33% and the “NUCLEATED RED BLOOD CELLS” value [1] was 0 /100WBC. The “PLATELET COUNT” value [1] was 1090 x10E3/uL, the “ALANINE AMINOTRANSFERASE” value [1] was 51 u/L and the ALBUMIN [1] was 3.77 G/DL. For the same compound, the “ALKALINE PHOSPHATASE” value [1] was 376.33 u/L, the “ASPARTATE AMINOTRANSFERASE” value [1] was 90 u/L and the “BLOOD UREA NITROGEN” value [1] was 16 mg/dL. The “CARBON DIOXIDE” value [1] was 24 mmol/L, the CHLORIDE [1] was 99 MEQ/L and the CHOLESTEROL [1] was 81.33 mg/dL. For the same compound, the “CREATINE PHOSPHOKINASE” value [1] was 578.33 u/L, the CREATININE [1] was 0.19 mg/dL and the GLUCOSE [1] was 142 mg/dL. For the same compound, the “LACTATE DEHYDROGENASE” value [1] was 171.33 u/L, the LIPASE [1] was 7.33 u/L and the PHOSPHORUS [1] was 11.13 mg/dL. The POTASSIUM [1] was 6.14 MEQ/L, the SODIUM [1] was 146.5 MEQ/L and the “TOTAL BILIRUBIN” value [1] was 0.23 mg/dL. For the same compound, the “TOTAL PROTEIN” value [1] was 6.23 G/DL, the “URIC ACID” value [1] was 1.13 mg/dL and the “ABSOLUTE BASOPHIL” value [2] was 0 CELLS/uL. For the same compound, the “ABSOLUTE EOSINOPHIL” value [2] was 0 CELLS/uL, the “ABSOLUTE LYMPHOCYTE” value [2] was 7670 CELLS/uL and the “ABSOLUTE MONOCYTE” value [2] was 0 CELLS/uL. The “ABSOLUTE SEGMENTED NEUTROPHIL” value [2] was 730 CELLS/uL, the BASOPHIL [2] was 0% and the EOSINOPHIL [2] was 0%. For the same compound, the “ERYTHROCYTE COUNT” value [2] was 4.92 x10E6/uL, the HEMATOCRIT [2] was 32.37% and the HEMOGLOBIN [2] was 12.33 G/DL. The “LEUKOCYTE COUNT” value [2] was 8.4 x10E3/uL, the LYMPHOCYTE [2] was 91.67% and the “MEAN CORPUSCULAR HEMOGLOBIN” value [2] was 25.1 pg. The “MEAN CORPUSCULAR HEMOGLOBIN CONCENTRATION” value [2] was 38.13 G/DL, the “MEAN CORPUSCULAR VOLUME” value [2] was 65.77 fL and the MONOCYTE [2] was 0%. For the same compound, the NEUTROPHIL [2] was 8.33%, the “NUCLEATED RED BLOOD CELLS” value [2] was 0 /100WBC and the “PLATELET COUNT” value [2] was 800.67 x10E3/uL. The “ALANINE AMINOTRANSFERASE” value [2] was 47.33 u/L, the ALBUMIN [2] was 4.3 G/DL and the “ALKALINE PHOSPHATASE” value [2] was 403.67 u/L. For the same compound, the “ASPARTATE AMINOTRANSFERASE” value [2] was 74.33 u/L, the “BLOOD UREA NITROGEN” value [2] was 15.33 mg/dL and the “CARBON DIOXIDE” value [2] was 24.33 mmol/L. For the same compound, the CHLORIDE [2] was 101.67 MEQ/L, the CHOLESTEROL [2] was 72.33 mg/dL and the “CREATINE PHOSPHOKINASE” value [2] was 270.67 u/L. For the same compound, the CREATININE [2] was 0.18 mg/dL, the GLUCOSE [2] was 163 mg/dL and the “LACTATE DEHYDROGENASE” value [2] was 143 u/L. For the same compound, the LIPASE [2] was 8.33 u/L, the PHOSPHORUS [2] was 13.13 mg/dL and the POTASSIUM [2] was 6.25 MEQ/L. For the same compound, the SODIUM [2] was 144.7 MEQ/L, the “TOTAL BILIRUBIN” value [2] was 0.3 mg/dL and the “TOTAL PROTEIN” value [2] was 5.97 G/DL. The “URIC ACID” value [2] was 2.13 mg/dL, the “ABSOLUTE BASOPHIL” value [3] was 0 CELLS/uL and the “ABSOLUTE EOSINOPHIL” value [3] was 126 CELLS/uL. The “ABSOLUTE LYMPHOCYTE” value [3] was 12819 CELLS/uL, the “ABSOLUTE MONOCYTE” value [3] was 78 CELLS/uL and the “ABSOLUTE SEGMENTED NEUTROPHIL” value [3] was 1743.67 CELLS/uL. For the same compound, the BASOPHIL [3] was 0%, the EOSINOPHIL [3] was 0.67% and the “ERYTHROCYTE COUNT” value [3] was 5.88 x10E6/uL. For the same compound, the HEMATOCRIT [3] was 36.87%, the HEMOGLOBIN [3] was 13.53 G/DL and the “LEUKOCYTE COUNT” value [3] was 14.77 x10E3/uL. The LYMPHOCYTE [3] was 87%, the “MEAN CORPUSCULAR HEMOGLOBIN” value [3] was 23.07 pg and the “MEAN CORPUSCULAR HEMOGLOBIN CONCENTRATION” value [3] was 36.77 G/DL. For the same compound, the “MEAN CORPUSCULAR VOLUME” value [3] was 62.77 fL, the MONOCYTE [3] was 0.67% and the NEUTROPHIL [3] was 11.67%. For the same compound, the “NUCLEATED RED BLOOD CELLS” value [3] was 0 /100WBC, the “PLATELET COUNT” value [3] was 1236 x10E3/uL and the “ALANINE AMINOTRANSFERASE” value [3] was 46.33 u/L. The ALBUMIN [3] was 4 G/DL, the “ALKALINE PHOSPHATASE” value [3] was 354.67 u/L and the “ASPARTATE AMINOTRANSFERASE” value [3] was 82.33 u/L. For the same compound, the “BLOOD UREA NITROGEN” value [3] was 17.67 mg/dL, the “CARBON DIOXIDE” value [3] was 27.33 mmol/L and the CHLORIDE [3] was 101.67 MEQ/L. The CHOLESTEROL [3] was 65.33 mg/dL, the “CREATINE PHOSPHOKINASE” value [3] was 261.33 u/L and the CREATININE [3] was 0.2 mg/dL. The GLUCOSE [3] was 152.67 mg/dL, the “LACTATE DEHYDROGENASE” value [3] was 145.67 u/L and the LIPASE [3] was 8 u/L. For the same compound, the PHOSPHORUS [3] was 11.87 mg/dL, the POTASSIUM [3] was 6.3 MEQ/L and the SODIUM [3] was 145.97 MEQ/L. The “TOTAL BILIRUBIN” value [3] was 0.13 mg/dL, the “TOTAL PROTEIN” value [3] was 5.97 G/DL and the “URIC ACID” value [3] was 1.5 mg/dL.

— ChEMBL document CHEMBL3885881, “DrugMatrix”
